Measured values as given in article PMC12222587, “A2B adenosine receptor-triggered intracellular calcium mobilization: Cell type-dependent involvement of Gi, Gq, Gs proteins and protein kinase C” (Purinergic Signalling, 2025).
Entries after “also recorded” stand apart in the source; their conditions may differ. Read-outs that look alike come from different tables or passages of the source. *1 amine or outer side, *2 acyl side, *3 side chain or, on linkers, in order; H or OH if unused. Where a SMILES comes first, the peptide text is derived from it. Bridges are numbered along the chain shown (N, C = ends). [ ]: non-standard residue; d: D form. The star is where a group is joined. Leu(3R-OH,Nα-propionyl) = CCC(=O)N[C@H](C(=O)*)[C@H](O)C(C)C; X1 = CC(C)[C@@H](O[*:3])[C@H](N[*:1])C(=O)[*:2]; NMeT = CN[C@H](C(=O)O)[C@@H](C)O; dPhLac = O=C(O)[C@H](O)Cc1ccccc1; NMeA = CN[C@@H](C)C(=O)O; NMeDha = C=C(NC)C(=O)O

How the values were obtained:
[1] = test system: endogenous adenosine receptors; assay: cAMP accumulation, MDA-MB-231 cells expressing endogenous adenosine receptors; assay type: cell-based, human
Description: (§1) HEK293, T24 bladder cancer and MDA-MB-231 breast cell lines were cultured in DMEM medium containing 10% fetal bovine serum, 100 units/ml penicillin, 100 μg/ml streptomycin, and 2 μmol/ml glutamine. For the assay of 3′,5′-cyclic adenosine monophosphate (cAMP), cells were plated in 96-well (4 × 10^4 cells/well) clear plates in 100 μl of medium overnight. Cell culture medium was then replaced with 80 µl HBSS buffer containing 20 mM HEPES, phosphodiesterase inhibitor rolipram (10 μM), and 3 units/ml adenosine deaminase (Worthington Biochemical, Lakewood, NJ, USA) for 30 min followed by agonist addition to the mixture, which was then incubated for 20 min. The treatment of YM or FR was 20 min before agonist addition.

A2AAR = biological target: T1, A2AAR (Homo sapiens, UniProt P29274); assay: cAMP accumulation, HEK293 cells, A2AAR-mediated stimulation (CGS21680); assay type: cell-based
T1 construct: host or cells: HEK293
Description: as §1

P2Y1 receptor [2] = test system: P2Y1 receptor; design: method as in PMID 26954502; settings: FR at 100 and 300 nM; cited from earlier work
[3] = test system: M3 acetylcholine receptor; design: method as in PMID 26954502; settings: FR at 100 and 300 nM; cited from earlier work
A1AR [4] = settings: CHO cells; FR 300 nM; cited from earlier work
A1AR [5] = biological target: T2, A1AR (Homo sapiens, UniProt P30542); assay: Intracellular calcium mobilization, HEK293 cells expressing recombinant A1AR (CCPA); assay type: cell-based
T2 construct: expressed in transfected cells
T2 sequence (P30542 1-326): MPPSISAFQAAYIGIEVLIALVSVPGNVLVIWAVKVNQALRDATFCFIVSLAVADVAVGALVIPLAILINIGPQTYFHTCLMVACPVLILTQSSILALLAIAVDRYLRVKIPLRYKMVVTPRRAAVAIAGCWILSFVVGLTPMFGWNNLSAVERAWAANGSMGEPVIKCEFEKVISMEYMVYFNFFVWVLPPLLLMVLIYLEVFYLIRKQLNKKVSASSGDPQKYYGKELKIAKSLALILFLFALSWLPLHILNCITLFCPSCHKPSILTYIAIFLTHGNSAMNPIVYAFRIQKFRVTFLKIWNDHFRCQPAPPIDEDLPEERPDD

[6] = test system: M2 muscarinic acetylcholine receptor; settings: overexpressed in CHO or 1321N1 astrocytoma cells; FR 100 nM; cited from earlier work
A1AR [7] = settings: overexpressed in CHO or 1321N1 astrocytoma cells; FR 100 nM; cited from earlier work
P2Y1R [8] = biological target: T3, P2Y1R (Homo sapiens, UniProt P47900); assay: Intracellular calcium mobilization, T24 bladder cancer cells, native P2Y1R (MRS2365); assay type: cell-based; settings: for Effect on native P2Y1R (MRS2365)-triggered calcium mobilization: YM 300 nM, FR 300 nM, PTX 200 ng/ml overnight
A2B adenosine receptor = test system: A2B adenosine receptor; design: method as in PMID 26954502; settings: CHO cells; FR 300 nM; cited from earlier work
[9] = test system: M3 acetylcholine receptor; design: method as in PMID 26954502; settings: FR at both 100 and 300 nM; cited from earlier work
β2-adrenergic receptor = β2-adrenergic receptor (Homo sapiens, UniProt P07550); assay: Intracellular calcium mobilization, T24 bladder cancer cells, endogenous β2-adrenergic receptor; assay type: cell-based; settings: T24 cells, FR 300 nM, PMA 1 µM
P2Y12 receptor = test system: P2Y12 receptor; design: method as in PMID 26954502; settings: overexpressed in CHO or 1321N1 astrocytoma cells; FR 100 nM; cited from earlier work
P2Y1 receptor [10] = test system: P2Y1 receptor; design: method as in PMID 26954502; settings: FR at both 100 and 300 nM; cited from earlier work
A1AR [11] = biological target: T2, A1AR; assay: cAMP accumulation, HEK293 cells, A1AR-mediated inhibition of forskolin-stimulated cAMP (CCPA); assay type: cell-based
Description: as §1

A2BAR [12] = biological target: T4, A2BAR (Homo sapiens, UniProt P29275); assay: Intracellular calcium mobilization, T24 bladder cancer cells, native A2BAR (NECA); assay type: cell-based
T4 sequence (P29275 1-332): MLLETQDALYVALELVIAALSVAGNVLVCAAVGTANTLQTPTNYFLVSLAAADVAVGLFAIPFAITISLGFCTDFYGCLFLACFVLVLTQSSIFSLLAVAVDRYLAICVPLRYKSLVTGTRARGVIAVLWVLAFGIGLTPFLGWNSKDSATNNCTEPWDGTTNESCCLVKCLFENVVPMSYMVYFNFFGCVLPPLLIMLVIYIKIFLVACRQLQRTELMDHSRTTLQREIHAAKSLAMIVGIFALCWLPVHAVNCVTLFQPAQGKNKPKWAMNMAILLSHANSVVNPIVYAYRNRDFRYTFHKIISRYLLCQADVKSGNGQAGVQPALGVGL

P2Y1R [13] = biological target: T3, P2Y1R; assay: Intracellular calcium mobilization, HEK293 cells, native P2Y1R (MRS2365); assay type: cell-based
A1AR [14] = settings: FR 100 nM; small but significant; cited from earlier work
A1AR [15] = settings: FR 100 nM; cited from earlier work
A2BAR [16] = biological target: T4, A2BAR; design: method as in PMID 24853985; settings: T24 cells; cited from earlier work

T3 sequence (P47900 whole entry): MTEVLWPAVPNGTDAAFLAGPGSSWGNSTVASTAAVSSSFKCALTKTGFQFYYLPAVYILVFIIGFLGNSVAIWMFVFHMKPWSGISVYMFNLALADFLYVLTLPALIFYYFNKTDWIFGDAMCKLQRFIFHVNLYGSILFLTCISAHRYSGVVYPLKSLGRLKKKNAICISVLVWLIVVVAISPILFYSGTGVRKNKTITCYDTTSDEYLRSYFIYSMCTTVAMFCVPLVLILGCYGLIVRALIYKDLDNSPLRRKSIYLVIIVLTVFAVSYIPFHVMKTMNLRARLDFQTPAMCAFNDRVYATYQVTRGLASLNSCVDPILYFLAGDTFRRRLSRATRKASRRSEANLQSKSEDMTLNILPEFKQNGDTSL
Chain of β2-adrenergic receptor (P07550 whole entry): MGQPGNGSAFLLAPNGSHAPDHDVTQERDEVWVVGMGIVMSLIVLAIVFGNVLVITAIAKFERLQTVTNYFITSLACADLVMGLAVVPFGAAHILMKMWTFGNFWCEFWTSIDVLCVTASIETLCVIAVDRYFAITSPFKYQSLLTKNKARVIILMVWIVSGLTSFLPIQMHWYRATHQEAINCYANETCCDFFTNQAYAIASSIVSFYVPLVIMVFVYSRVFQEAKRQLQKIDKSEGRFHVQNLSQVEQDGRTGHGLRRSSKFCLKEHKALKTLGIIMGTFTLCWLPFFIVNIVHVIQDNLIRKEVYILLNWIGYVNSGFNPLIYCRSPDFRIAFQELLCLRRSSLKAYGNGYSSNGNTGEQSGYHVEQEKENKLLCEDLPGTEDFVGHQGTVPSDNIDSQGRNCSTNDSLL
T1 sequence (P29274 whole entry): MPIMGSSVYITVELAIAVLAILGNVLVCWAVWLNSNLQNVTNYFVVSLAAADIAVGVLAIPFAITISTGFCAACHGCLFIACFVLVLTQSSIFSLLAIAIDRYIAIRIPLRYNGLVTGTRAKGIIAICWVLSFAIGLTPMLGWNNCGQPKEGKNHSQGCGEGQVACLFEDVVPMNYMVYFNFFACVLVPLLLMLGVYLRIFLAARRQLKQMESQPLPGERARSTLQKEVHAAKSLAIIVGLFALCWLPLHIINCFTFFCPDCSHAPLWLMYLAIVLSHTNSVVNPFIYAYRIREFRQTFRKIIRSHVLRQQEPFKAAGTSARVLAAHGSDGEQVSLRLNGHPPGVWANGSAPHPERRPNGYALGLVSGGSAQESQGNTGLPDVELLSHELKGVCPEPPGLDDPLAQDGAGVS

`CCNC(=O)[C@H]1O[C@@H](n2cnc3c(N)nc(NCCc4ccc(CCC(=O)O)cc4)nc32)[C@H](O)[C@@H]1O` [CGS21680] gave an EC50 [1] of 2.24 ± 0.85 µM.

For `C=C1C(=O)N[C@@H](C)C(=O)N(C)[C@@H](C)C(=O)N[C@@H]([C@H](OC(=O)[C@@H](NC(=O)CC)[C@H](O)C(C)C)C(C)C)C(=O)N(C)[C@@H]([C@@H](C)OC)C(=O)O[C@H](C(C)C)[C@H](NC(C)=O)C(=O)O[C@H](Cc2ccccc2)C(=O)N1C` [FR, FR900359] (Ac-[X1][dPhLac][NMeDha]A[NMeA][X1](Leu(3R-OH,Nα-propionyl))[NMeT](Me); ester 1-C), the “Effect on A2AAR-mediated stimulation of cAMP accumulation” value (A2AAR) is given as “did not affect”, the “Effect on calcium response triggered by the P2Y1 receptor” value (P2Y1 receptor [2]) is given as “completely inhibited” and the “Effect on calcium response triggered by the M3 acetylcholine receptor” value [3] is given as “completely inhibited”. For the same molecule, the “Effect on A1AR-Gαi-mediated inhibition of forskolin-stimulated cAMP accumulation” value (A1AR [4]) was “no effect”, the “Effect on A1AR (CCPA)-mediated calcium mobilization” value (A1AR [5]; HEK293 cells overexpressing A1AR, Gq/11 siRNA 250 nM, PTX 200 ng/ml overnight, FR, YM 20 min before agonist) was “inhibited; also recorded: YM and FR – fully sensitive (2)” and the IC50 (A1AR [5]; HEK293 cells, overexpressed A1AR, agonist CCPA 1 µM, read-out: IC50 for inhibition of A1AR-mediated calcium mobilization) was 0.00866 ± 0.00323 µM. The “Effect on Giβγ-mediated calcium mobilization, or IP1 accumulation, upon M2 receptor activation” value [6] was “nearly complete inhibition”, the “Effect on Giβγ-mediated calcium mobilization, or IP1 accumulation, upon A1AR activation” value (A1AR [7]) was “nearly complete inhibition” and the “Effect on native P2Y1R (MRS2365)-triggered calcium mobilization” value (P2Y1R [8]) was “completely inhibited”. The “Effect on A2BAR-Gαs-mediated cAMP accumulation” value (A2B adenosine receptor) was “no effect”, the “Effect on ERK1/2 activity triggered by the M3 acetylcholine receptor” value [9] was “only partially inhibited” and the “Effect on isoproterenol-induced calcium mobilization (β2-adrenergic receptor)” value (β2-adrenergic receptor) was “diminished”. For the same molecule, the “Effect on formoterol-induced calcium mobilization (β2-adrenergic receptor)” value (β2-adrenergic receptor; YM 1 µM, PTX 200 ng/ml, CTX 500 ng/ml) was “diminished”, the “Effect on Giβγ-mediated calcium mobilization, or IP1 accumulation, upon P2Y12R activation” value (P2Y12 receptor) was “nearly complete inhibition” and the “Effect on ERK1/2 activity triggered by the P2Y1 receptor” value (P2Y1 receptor [10]) was “only partially inhibited”. For the same molecule, the “Effect on A1AR-mediated inhibition of cAMP accumulation” value (A1AR [11]) was “did not affect”, the “Effect on native A2BAR (NECA)-triggered calcium mobilization” value (A2BAR [12]; T24 cells, YM 300 nM, FR 300 nM, PTX 200 ng/ml, CTX 500 ng/ml overnight, other inhibitors 20 min before NECA) was “FR and YM insensitive (4); Gαq/11 siRNA insensitive (4)” and the “Effect on P2Y1R (MRS2365)-mediated calcium mobilization” value (P2Y1R [13]; Gq/11 siRNA 250 nM, PTX 200 ng/ml overnight, FR, YM 20 min before agonist) was “inhibited; also recorded: fully sensitive”. For the same molecule, the IC50 (P2Y1R [13]; agonist MRS2365 1 µM, read-out: IC50 to inhibit P2Y1R-mediated calcium mobilization) was 0.0132 ± 0.0032 µM, the “Inhibition of A1AR-mediated ERK1/2 activity” value (A1AR [14]) was less than 30% and the “Effect on A1AR-mediated Akt1/2/3 phosphorylation” value (A1AR [15]) was “no effect”.

In the case of `CCCn1c(=O)[nH]c2nc(-c3ccc(S(=O)(=O)N4CCN(c5ccc(Cl)cc5)CC4)cc3)[nH]c2c1=O` [PSB603], the “Effect on NECA-induced Ca2+ increase” value (A2BAR [16]) is given as “completely blocked” and the “Effect on native A2BAR (NECA)-triggered calcium mobilization” value (A2BAR [12]) is given as “completely inhibited”.

For `COc1ccc2c(c1)c(C1=C(c3c[nH]c4ccccc34)C(=O)NC1=O)cn2CCCN(C)C` [GO], the “Effect of pretreatment on the PMA effect at P2Y1R-triggered Ca2+ increase” value (P2Y1R [8]; GO 20 min, then PMA 20 min before agonist) was “eliminated the effect of PMA”, the “Effect on native P2Y1R (MRS2365)-triggered calcium mobilization” value (P2Y1R [8]) was “significantly enhanced” and the “Effect of pretreatment on the PMA effect at A2BAR-triggered Ca2+ increase” value (A2BAR [12]; T24 cells, GO 20 min, then PMA 20 min before agonist) was “eliminated the effect of PMA”.

Work on `CCNC(=O)[C@H]1O[C@@H](n2cnc3c(N)ncnc32)[C@H](O)[C@@H]1O` [NECA, adenosine-5′-N-ethyluronamide] yielded an EC50 [1] of 0.0731 ± 0.0182 µM.
